Data as given in ChEMBL document CHEMBL3804823, “Inhibitors of secreted phospholipase A2 suppress the release of PGE2 in renal mesangial cells” (Bioorg Med Chem, 2016).
Calls of active or inactive are those of the source. No cut-off for these calls is given here.

Legend:
Type in all cases: cell-based
[1] = species on record: Rattus norvegicus; experiment: Inhibition of secretory phospholipase A2 in rat renal mesangial cells assessed as suppression of IL-1beta/forskolin stimulated PGE2 formation preincubated for 20 mins prior to IL-1beta/forskolin challenge at 10 uM measured after 24 hrs by PGE2-specific ELISA
[2] = species on record: Rattus norvegicus; experiment: Inhibition of secretory phospholipase A2 in rat renal mesangial cells assessed as suppression of IL-1beta/forskolin stimulated PGE2 formation preincubated for 20 mins prior to IL-1beta/forskolin challenge at 1 to 10 uM measured after 24 hrs by PGE2-specific ELISA
[3] = species on record: Rattus norvegicus; experiment: Inhibition of secretory phospholipase A2 in rat renal mesangial cells assessed as suppression of IL-1beta/forskolin stimulated PGE2 formation preincubated for 20 mins prior to IL-1beta/forskolin challenge at 3 and 10 uM measured after 24 hrs by PGE2-specific ELISA
[4] = species on record: Rattus norvegicus; experiment: Inhibition of secretory phospholipase A2 in rat renal mesangial cells assessed as suppression of IL-1beta/forskolin stimulated PGE2 formation preincubated for 20 mins prior to IL-1beta/forskolin challenge at 1 uM measured after 24 hrs by PGE2-specific ELISA

## CCCCCCCCCCCCCCC(=O)C(=O)NCCCC(=O)OCC
[1]
  inhibition: inactive

## CCCCCCCCCCCCCCC(=O)C(=O)N[C@@H](CCCC)CCCC(=O)O
[1]
  inhibition: inactive

## O=C(O)CC[C@@H](Cc1ccc(OCc2ccccc2)cc1)NC(=O)CCCCCCc1ccccc1
[2]
  inhibition: Active

## CCCC[C@H](CCC(=O)O)NC(=O)CCCCNC(=O)c1ccc(OC)cc1
[2]
  inhibition: Active

## CCCC[C@H](CCC(=O)O)NC(=O)CCCCCOc1ccccc1
[3]
  inhibition: Active
[4]
  inhibition: inactive

## CCCCCCCCCCCCCCCCC(=O)C(=O)N[C@H](C(=O)O)C(C)C
[2]
  inhibition: Active

## CC(C)[C@H](NC(=O)C(=O)c1ccc2ccccc2c1)C(=O)O
[3]
  inhibition: Active
[4]
  inhibition: inactive

## CC(C)[C@H](NC(=O)C(=O)CCCCc1ccccc1)C(=O)O
[2]
  inhibition: Active

## CCCC[C@H](CCC(=O)O)NC(=O)CCCCNC(=O)c1ccccc1
[3]
  inhibition: Active
[4]
  inhibition: inactive

## O=C(CCCCc1ccccc1)C(F)(F)C(F)(F)F
[1]
  inhibition: inactive

## CCCC[C@H](CCC(=O)O)NC(=O)CCCCC(=O)Nc1ccccc1
[3]
  inhibition: Active
[4]
  inhibition: inactive

## CCCC[C@H](CCC(=O)O)NC(=O)CCCC(=O)NCc1ccccc1
[2]
  inhibition: Active

## CCCCCCCCCCCCCCC(=O)C(=O)N[C@@H](CC(C)C)C(=O)O
[2]
  inhibition: Active

## CC(C)[C@H](NC(=O)C(=O)CCCCc1ccc2ccccc2c1)C(=O)O
[2]
  inhibition: Active

## CCCC[C@H](CCC(=O)O)NC(=O)CCCCCCc1ccccc1
[2]
  inhibition: Active
